pIC50: −log10 of the molar value. “And” between values parts separate entries of the source, which are not always exact repeats. Equal values may be shown once.
Tested on: 885724-159-R-J1-PDC complex spheroid viability
Test: Anticancer human tumor 885724-159-R-J1-PDC patient-derived pancreatic adenocarcinoma cell line growth inhibition [POLQ]
Settings: for viability, T/C: stronger effect = lower value; for pIC50: curve of compound
Protocol: Multicellular complex tumor spheroid response to Polymerase (POL) inhibitors (novobiocin, ART-558, RP6685) in combination with a variety of drugs and investigational agents in selected tumor cell lines
The POL inhibitors (novobiocin, ART-558, and RP6685) were evaluated both individually and in combination with standard of care and investigational anticancer small molecules within a complex spheroid model of solid tumors. . Complex spheroids include a stromal component modeled by human endothelial cells (HUVEC) and fibroblasts modeled by human mesenchymal stem cells (MSCs). The concentration ranges selected for each drug and investigational agent were based upon clinically achievable concentrations if the clinical Cmax of the agent was known.
Compounds. The drugs and investigational agents: novobiocin (NSC847541), ART-558 (NSC835418), RP-6685 (NSC848927), peposertib (NSC802822), ceralasertib (NSC780249), elimusertib (NSC800525), camonsertib (NSC841442), AZD-1390 (NSC803789), olaparib (NSC753686), talazoparib (NSC767125), rucaparib (NSC756644), sotorasib (NSC818433), MRTX-1133 (NSC836407), SN-38 (NSC673596), topotecan (NSC609699), epotoside (NSC141540), doxorubicin (NSC123127), gemcitabine (NSC613327), 5-fluorouracil (NSC19893), paclitaxel (NSC125973), vemurafenib (NSC761431), MSA-2 (NSC828583), SN-011 (NSC837082), adavosertib (NSC754352), prexasertib (NSC758257), carboplatin (NSC241240) and oxaliplatin (NSC266046), were obtained from the National Cancer Institute (NCI) Developmental Therapeutics Program Chemical Repository (21). The FDA-approved anticancer drug set is available from the Developmental Therapeutics Program at https://dtp.cancer.gov/organization/dscb/obtaining/. […] The stock solutions were prepared in dimethyl sulfoxide (DMSO, Sigma-Aldrich, St. Louis, MO, cat. D2650), except for the platinum compounds which were prepared in saline (Quality Biological, Gaithersburg, MD, cat. 114-055-101), at 800-fold the tested concentration and stored at -70 degrees C prior to their use. All drugs and investigational agents were tested over a range starting from a high concentration at or near the clinical Cmax and decreasing in half-log increments. If the clinical Cmax for an agent had not been determined, the highest concentration tested was 10 microM, except for SN-38, which was tested at a high concentration of 1 microM.
Cell Culture. All cells were maintained in an incubator at 37 degrees C and 5% CO2 with 95% humidity. The PDC lines were cultured according to standard operating procedures established by the NCI PDMR (https://pdmr.cancer.gov). Table 3 of the manuscript, lists the cell lines along with the number of the three cell types plated to form the mct-spheroids and media for tumor cell growth. After thawing, all PDC lines, except 997537-175-T-J1-PDC and 415267-285-R-J2-PDC, were cultured in Matrigel-coated flasks prepared with a working solution of 1X Ham's F-12 nutrient mix, without supplementation (Thermo Fisher Scientific, cat. 11765054), 100 U/mL penicillin-streptomycin (Thermo Fisher Scientific, cat. 15140122), and 2.5% Matrigel (Corning Inc., Corning, NY, cat. 354248) for the first three passages. The two PDC lines 997537-175-T-J1-PDC and 415267-285-R-J2-PDC were cultured on uncoated flasks. The 857933-349-R-J2-PDC line was cultured in 6C/Colon 1B media containing advanced DMEM/F-12 (Thermo Fisher Scientific, cat. 12634028), 10 mM HEPES (Thermo Fisher Scientific, cat. 15630080), 1X GlutaMAX supplement (Thermo Fisher Scientific, cat. 35050061), 0.1 mg/mL primocin (InvivoGen, San Diego, CA, cat. ant-pm-2), 10% defined fetal bovine serum, heat inactivated (HyClone Laboratories Inc., Logan, UT, cat. SH30070.03HI), 50% L-WRN conditioned media (ATCC, cat. CRL-3276), 1.25 mM N-Acetyl-L-cysteine (Sigma-Aldrich, cat. A9165), 10 mM nicotinamide (Sigma-Aldrich, cat. N0636), 1X B-27 supplement (Thermo Fisher Scientific, cat. 17504044), 1X N-2 supplement (Thermo Fisher Scientific, cat. […]
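Further: spheroids exposed to compounds for 7 days.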

For `C#Cc1c(F)ccc2cc(O)cc(-c3ncc4c(N5CC6CCC(C5)N6)nc(OCC56CCCN5CC(F)C6)nc4c3F)c12` (stereo not drawn), the viability, T/C (compound 0.0316 µM) was 106% and 94.3% and 96.4%, the viability, T/C (compound 0.1 µM) was 99.8% and 92.7% and 89.8% and the viability, T/C (compound 0.316 µM) was 85.4% and 94.8% and 91.8%. For the same molecule, the viability, T/C (compound 1 µM) was 67.7% and 67.8% and 78.2%, the viability, T/C (compound 3.16 µM) was 38.5% and 45.1% and 45.6% and the viability, T/C (compound 10 µM) was 20.5% and 24.2% and 20.4%. The pIC50 was 5.69 and 5.63 and 5.57.
With `C=CC(=O)N1CCN(c2nc(=O)n(-c3c(C)ccnc3C(C)C)c3nc(-c4c(O)cccc4F)c(F)cc23)C(C)C1` (stereo not drawn) the viability, T/C (compound 0.0316 µM) was 101% and 99.6% and 109%, the viability, T/C (compound 0.1 µM) was 87.9% and 97.3% and 91.8% and the viability, T/C (compound 0.316 µM) was 95.6% and 105% and 106%. The viability, T/C (compound 1 µM) was 98.9% and 116% and 108%, the viability, T/C (compound 3.16 µM) was 105% and 94.4% and 114% and the viability, T/C (compound 10 µM) was 90.5% and 92.3% and 86.1%. It also gave a pIC50 of under 5.00.
With `CC(C)n1c(=O)n(C)c2cnc3cc(F)c(-c4ccc(OCCCN5CCCCC5)nc4)cc3c21` the viability, T/C (compound 0.0316 µM) was 94.5% and 97.2% and 114%, the viability, T/C (compound 0.1 µM) was 99.6% and 106% and 103% and the viability, T/C (compound 0.316 µM) was 98.5% and 110% and 99.5%. For the same molecule, the viability, T/C (compound 1 µM) was 102% and 97.6% and 97.8%, the viability, T/C (compound 3.16 µM) was 93.2% and 94.7% and 105% and the viability, T/C (compound 10 µM) was 67% and 74.3% and 92.4%. The pIC50 was under 5.00.
In the case of `CC1COCCN1c1cc(-c2ccnn2C)c2ccnc(-c3ccn[nH]3)c2n1` (stereo not drawn), the viability, T/C (compound 0.0316 µM) was 73.3% and 80% and 94.5%, the viability, T/C (compound 0.1 µM) was 57.2% and 56.3% and 59.7% and the viability, T/C (compound 0.316 µM) was 49.6% and 42.2% and 46.3%. For the same molecule, the viability, T/C (compound 1 µM) was 44.4% and 39.4% and 45.7%, the viability, T/C (compound 3.16 µM) was 43.7% and 39.8% and 43.8% and the viability, T/C (compound 10 µM) was 38.9% and 38.2% and 38.7%. The pIC50 was 6.55 and 6.78 and 6.61.
In the case of `CC1COCCN1c1cc(C2(O)CC3CCC(C2)O3)c2cnn(-c3ccn[nH]3)c2n1` (stereo not drawn), the viability, T/C (compound 0.0316 µM) was 74.4% and 70.9% and 67.4%, the viability, T/C (compound 0.1 µM) was 52.9% and 50.4% (2×) and the viability, T/C (compound 0.316 µM) was 48.7% and 37.5% and 44.3%. For the same molecule, the viability, T/C (compound 1 µM) was 41.8% and 37.1% and 40.4%, the viability, T/C (compound 3.16 µM) was 37.3% and 33.5% and 35.4% and the viability, T/C (compound 10 µM) was 28.7% and 26.5% and 27.9%. For the same molecule, the pIC50 was 6.65 and 6.97 and 6.81.
With `CC1COCCN1c1cc(C2(S(C)(=N)=O)CC2)nc(-c2ccnc3[nH]ccc23)n1` (stereo not drawn) the viability, T/C (compound 0.0316 µM) was 96.4% and 90.3% and 97.2%, the viability, T/C (compound 0.1 µM) was 100% and 94.7% and 97.1% and the viability, T/C (compound 0.316 µM) was 93.7% and 85.1% and 88.2%. The viability, T/C (compound 1 µM) was 73.4% and 67.6% and 74.4%, the viability, T/C (compound 3.16 µM) was 55% and 54.6% and 54.8% and the viability, T/C (compound 10 µM) was 45.8% and 44.7% and 42.3%. The pIC50 was 5.24 and 5.31.
`CCCS(=O)(=O)Nc1ccc(F)c(C(=O)c2c[nH]c3ncc(-c4ccc(Cl)cc4)cc23)c1F` was tested, and the viability, T/C (compound 0.0316 µM) was 93.7% and 104% and 95.6%, the viability, T/C (compound 0.1 µM) was 117% and 108% and 115% and the viability, T/C (compound 0.316 µM) was 124% (2×) and 122%. For the same molecule, the viability, T/C (compound 1 µM) was 158% and 146% and 140%, the viability, T/C (compound 3.16 µM) was 158% and 144% and 133% and the viability, T/C (compound 10 µM) was 90.7% and 102% and 68.9%. The pIC50 was under 5.00.
With `CCc1cc2c(N3CCc4c(cc(Cn5ccnc5)cc4-c4cn(C)nc4C(F)(F)F)C3=O)cc(C)nc2c(OC)n1` the viability, T/C (compound 0.0316 µM) was 78.8% and 91% and 78.9%, the viability, T/C (compound 0.1 µM) was 81.9% and 91.9% and 92.2% and the viability, T/C (compound 0.316 µM) was 79.6% and 85.4% and 85.2%. For the same molecule, the viability, T/C (compound 1 µM) was 81.4% and 83.5% and 75.8%, the viability, T/C (compound 3.16 µM) was 76.3% and 76.6% and 80.9% and the viability, T/C (compound 10 µM) was 72.1% and 69.1% and 62.2%. The pIC50 was under 5.00.
In the case of `CCc1cc2c(N3CCc4c(cc(Cn5ccnc5)cc4-c4cn(C)nc4C(F)(F)F)C3=O)ccnc2c(OC)n1`, the viability, T/C (compound 0.0316 µM) was 93.9% and 86.6% and 89.7%, the viability, T/C (compound 0.1 µM) was 80.4% and 79.6% and 85% and the viability, T/C (compound 0.316 µM) was 87.7% and 80.6% and 84.8%. The viability, T/C (compound 1 µM) was 72.1% and 82.8% and 82.3%, the viability, T/C (compound 3.16 µM) was 76.9% and 72.9% and 80% and the viability, T/C (compound 10 µM) was 64.6% and 72.9% and 65%. It also gave a pIC50 of under 5.00.

Reference: PubChem BioAssay AID1963832 (Molecular Pharmacology Branch, DTP, NCI, 2024)
